Patent US20170027973A1, “MODULARION OF INVARIANT NATURAL KILLER T CELLS IN THE TREATMENT OF SEPSIS” (LONDON HEALTH SCIENCES CENTRE RESEARCH INC., priority 2014, published 2017)

Experiments:
[1] = system: serum IL-4 and IFN-γ; assay: Serum IL-4 and IFN-γ by ELISA after i.p. glycolipid injection into naïve B6 mice; format: in vivo, mouse; conditions: compared to OCH
Procedure: FIG. 10: Effect of glycolipid agonists on cytokine expression in naïve B6 mice, and on iNKT cells in septic B6 mice. (a) Naïve B6 mice were injected i.p. with 4 μg OCH or KRN7000 or C20:2, and bled at 2, 12, and 24 hours post-injection. Serum samples were assayed for IL-4 and IFN-γ by enzyme-linked immunosorbent assay (ELISA). […] Vehicle-treated mice had cytokine levels below limits of detection. (b) B6 mice were given an intraperitoneal injection of fecal slurry (500 μL of a 90 mg/mL solution) to induce IAS and concomitantly treated with 4 μg of vehicle, OCH, or KRN7000. After 24 hours, mice were sacrificed, and cell suspensions from the liver and spleen were stained for the flow cytometric detection of CD1d tetramer+ TCRβ+iNKT cells.
(§1) Lyophilized OCH was generously provided by the National Institutes of Health (NIH) Tetramer Core Facility (Emory University, Atlanta, Ga.). Each vial containing 0.2 mg of OCH was solubilized in a vehicle solution containing 1 mL of sterile distilled water, 0.5% Tween 20, 56 mg of sucrose and 7.5 mg of histidine, and stored as aliquots at 4° C. until use. KRN7000 (α-GalCer, C26:0/C18:0) was purchased from Funakoshi Co. Ltd. (Tokyo, Japan), solubilized at 1 mg/ml in dimethylsulphoxide (DMSO), and stored as aliquots at −20° C. until use (29); the control vehicle was 2% DMSO in phosphate-buffered saline (PBS). C20:2 was synthesized and used as previously published (30, 31). For in vivo experiments, mice were injected intraperitoneally (i.p.) with a single dose of glycolipid (4 μg/dose) (30) within twenty minutes after induction of IAS.
Cytokine concentrations were determined by commercially available specific ELISA assays for IL-4 and IFN-γ (Ready-Set-Go kits, eBioscience). ODs were measured on a Benchmark Microplate Reader (Bio-Rad) at a wavelength of 450 nm for both cytokines.

[2] = system: B6 mice with intra-abdominal sepsis (IAS); assay: Murine intra-abdominal sepsis (IAS) model: survival and murine sepsis score (MSS); format: in vivo, mouse; conditions: septic B6 mice
Procedure: Stool from the cecum of euthanized naïve B6 mice was expressed through an enterotomy, homogenized, and suspended in 0.9% normal saline (NS) to produce a fecal slurry at a final concentration of 90 mg/mL, for use in experiments on the same day. Mice were injected intraperitoneally with 500 μL fecal slurry or 0.9% normal saline (sham group). The mice were monitored and scored by two independent investigators—one of whom was blinded to the treatment—every 2-3 hours for the first 12 hours, and then every 1-2 hours thereafter. A murine sepsis score (MSS) was assigned to each mouse based on activity, eye movement, response to exogenous stimuli, breathing rate and pattern, and degree of piloerection (Shrum et al. BMC Research Notes 2014, 7:233). The MSS is a reliable and robust scoring system that has excellent inter-rater reliability (intra-class coefficient=0.96), high internal consistency (Cronbach α=0.92), and correlates with levels of certain pro-inflammatory cytokines such as IFN-γ and IL-1β during the experimental timeline (Shrum et al. BMC Research Notes 2014, 7:233). Mice were euthanized at 24 hours, or earlier if they were deemed to be in significant distress based on our scoring model. Euthanasia was carried out as described above. At the time of sacrifice, intra-cardiac blood was drawn into 1.5 mL micro-centrifuge tubes (BD Biosciences) and centrifuged for serum at 1000×g for 30 minutes at 4° C.
as §1

[3] = system: splenocyte apoptosis; assay: Histology (H&E) and TUNEL staining of spleen, liver and omentum of septic B6 mice; format: in vivo, mouse; conditions: 24 hours
Excerpt: FIG. 6: Histopathology of septic B6 mice treated with glycolipid agonists of iNKT cells. […] Lymphocyte migration to the omentum is also ameliorated in OCH-treated mice compared to vehicle- and KRN7000-treated mice. There were no histopathological differences in the liver. Images are representative of 4 animals per treatment group (size bar, 50 μm). (b) Histopathological scoring of the degree of apoptosis observed within the spleens of sham and septic B6 mice treated with vehicle, KRN7000, or OCH (n=4 animals per treatment group). Apoptosis was defined histologically by the presence of cell clusters with nuclear shrinkage (karyorrhexis), dark eosinophilic cytoplasm, intact plasma membrane, and relative paucity of surrounding inflammatory cells within the splenic follicles on H&E staining. Scores assigned to each animal by a blinded independent pathologist were as follows: 0 for complete absence of apoptosis; 1 for mild presence of apoptosis (0-15% per follicle); 2 for moderate apoptosis (16-30% per follicle); and 3 for severe apoptosis (31-45% per follicle). ***p<0.0001 by two-tailed Mann Whitney U test.
Liver, spleen, and omentum from sham B6 mice, and vehicle-, OCH-, and KRN7000-treated septic B6 mice were fixed in 10% neutral buffered formalin, embedded in paraffin, sectioned, and stained with H&E or subjected to TUNEL staining using a commercially available kit (Calbiochem). At least four stained sections per spleen from four animals per treatment group were examined and scored for apoptosis by a board-certified veterinary pathologist (Welch) who was blinded to the study design. Apoptosis was defined histologically by the presence of cell clusters with nuclear shrinkage (karyorrhexis), dark eosinophilic cytoplasm, intact plasma membrane, and relative paucity of surrounding inflammatory cells within the splenic follicles on H&E staining (34). Scores assigned to each animal were as follows: 0 for complete absence of apoptosis; 1 for mild presence of apoptosis (0-15% per follicle); 2 for moderate apoptosis (16-30% per follicle); and 3 for severe apoptosis (31-45% per follicle). Photomicrographs were taken using a Nikon DS-Fi1 digital camera using NIS-elements software.

[4] = system: invariant TCR; conditions: C20:2 compared to OCH; cited from earlier work
[5] = C20:2 compared to OCH; cited from earlier work

SMILES: CCCCC/C=C\C/C=C\CCCCCCCCCC(=O)N[C@@H](CO[C@H]1O[C@H](CO)[C@H](O)[C@H](O)[C@H]1O)[C@H](O)[C@H](O)CCCCCCCCCCCCCC [C20:2]
- Th2 response at 24 hours [1]: more pronounced
- respiratory status ([2]; observed up to 24 hours): improved respiratory status
- course of MSS over time ([2]; up to 24 hours): continued to rise
- MSS between 20 and 24 hours ([2]; compared to vehicle-treated mice): significant reduction
- apoptosis in histology compared to KRN7000-treated mice [3]: decrease
- degree of apoptosis compared to OCH-treated mice [3]: higher
- capacity to bind and activate iNKT cells [4]: significantly stronger
- half-life [5]: relatively short
